Measured values as given in the CheMixHub viscosity set.
± gives the uncertainty stated by the source.

Experiment: xn = mol fraction of the nth substance listed

Q: Which viscosity (303.15 K, 100 kPa, x2 = 0.1064) does the source give for `COc1ccccc1` + CCOC(=O)OCC here?
A: 0.894 ± 0.019 mPa·s

Q: And the viscosity (303.15 K, 100 kPa, x2 = 0.203)?
A: 0.867 ± 0.018 mPa·s

Q: And the viscosity (303.15 K, 100 kPa, x2 = 0.3032)?
A: 0.84 ± 0.018 mPa·s

Q: What about the viscosity (303.15 K, 100 kPa, x2 = 0.3994) of the same compound?
A: 0.817 ± 0.017 mPa·s

Q: What about the viscosity (303.15 K, 100 kPa, x2 = 0.499) of the same compound?
A: 0.793 ± 0.017 mPa·s

Q: And the viscosity (303.15 K, 100 kPa, x2 = 0.6007)?
A: 0.771 ± 0.016 mPa·s

Q: And the viscosity (303.15 K, 100 kPa, x2 = 0.7032)?
A: 0.75 ± 0.016 mPa·s

Q: And the viscosity (303.15 K, 100 kPa, x2 = 0.7988)?
A: 0.731 ± 0.015 mPa·s

Q: And the viscosity (303.15 K, 100 kPa, x2 = 0.8975)?
A: 0.714 ± 0.015 mPa·s

Q: And the viscosity (308.15 K, 100 kPa, x2 = 0.1064)?
A: 0.824 ± 0.017 mPa·s

Q: And the viscosity (308.15 K, 100 kPa, x2 = 0.203)?
A: 0.801 ± 0.017 mPa·s

Q: And the viscosity (308.15 K, 100 kPa, x2 = 0.3032)?
A: 0.778 ± 0.016 mPa·s

Q: And the viscosity (308.15 K, 100 kPa, x2 = 0.3994)?
A: 0.759 ± 0.016 mPa·s

Q: And the viscosity (308.15 K, 100 kPa, x2 = 0.499)?
A: 0.738 ± 0.015 mPa·s

Q: And the viscosity (308.15 K, 100 kPa, x2 = 0.6007)?
A: 0.719 ± 0.015 mPa·s

Q: And the viscosity (308.15 K, 100 kPa, x2 = 0.7032)?
A: 0.702 ± 0.015 mPa·s

Q: What about the viscosity (308.15 K, 100 kPa, x2 = 0.7988) of the same compound?
A: 0.687 ± 0.014 mPa·s

Q: And the viscosity (308.15 K, 100 kPa, x2 = 0.8975)?
A: 0.673 ± 0.014 mPa·s

Q: What about the viscosity (313.15 K, 100 kPa, x2 = 0.1064) of the same compound?
A: 0.767 ± 0.016 mPa·s

Q: What about the viscosity (313.15 K, 100 kPa, x2 = 0.203) of the same compound?
A: 0.748 ± 0.016 mPa·s

Q: What about the viscosity (313.15 K, 100 kPa, x2 = 0.3032) of the same compound?
A: 0.729 ± 0.015 mPa·s

Q: What about the viscosity (313.15 K, 100 kPa, x2 = 0.3994) of the same compound?
A: 0.711 ± 0.015 mPa·s

Q: And the viscosity (313.15 K, 100 kPa, x2 = 0.499)?
A: 0.694 ± 0.015 mPa·s

Q: What about the viscosity (313.15 K, 100 kPa, x2 = 0.6007) of the same compound?
A: 0.677 ± 0.014 mPa·s

Q: What about the viscosity (313.15 K, 100 kPa, x2 = 0.7032) of the same compound?
A: 0.662 ± 0.014 mPa·s

Q: And the viscosity (313.15 K, 100 kPa, x2 = 0.7988)?
A: 0.649 ± 0.014 mPa·s

Q: What about the viscosity (313.15 K, 100 kPa, x2 = 0.8975) of the same compound?
A: 0.636 ± 0.013 mPa·s

Q: With `CC1COC(=O)O1` (stereo unspecified) + CCCCO as the compound, how does the viscosity (298 K, 101.3 kPa, x1 = 0.0202) read?
A: 2.541 ± 0.018 mPa·s

Q: And the viscosity (298 K, 101.3 kPa, x1 = 0.0403)?
A: 2.511 ± 0.018 mPa·s

Q: What about the viscosity (298 K, 101.3 kPa, x1 = 0.0604) of the same compound?
A: 2.482 ± 0.017 mPa·s

Q: What about the viscosity (298 K, 101.3 kPa, x1 = 0.08) of the same compound?
A: 2.452 ± 0.017 mPa·s

Q: What about the viscosity (298 K, 101.3 kPa, x1 = 0.1006) of the same compound?
A: 2.423 ± 0.017 mPa·s

Q: What about the viscosity (298 K, 101.3 kPa, x1 = 0.2005) of the same compound?
A: 2.287 ± 0.016 mPa·s

Q: What about the viscosity (298 K, 101.3 kPa, x1 = 0.3006) of the same compound?
A: 2.167 ± 0.015 mPa·s

Q: And the viscosity (298 K, 101.3 kPa, x1 = 0.4003)?
A: 2.074 ± 0.014 mPa·s

Q: And the viscosity (298 K, 101.3 kPa, x1 = 0.5)?
A: 2.016 ± 0.014 mPa·s

Q: And the viscosity (298 K, 101.3 kPa, x1 = 0.6001)?
A: 1.999 ± 0.013 mPa·s

Q: And the viscosity (298 K, 101.3 kPa, x1 = 0.7)?
A: 2.031 ± 0.013 mPa·s

Q: What about the viscosity (298 K, 101.3 kPa, x1 = 0.8004) of the same compound?
A: 2.12 ± 0.014 mPa·s

Q: What about the viscosity (298 K, 101.3 kPa, x1 = 0.9) of the same compound?
A: 2.271 ± 0.015 mPa·s

Q: Which results are given for `COc1ccccc1` + C1CCCCC1?
A: viscosity (298.15 K, 101 kPa, x1 = 0.1016): 0.8187 ± 0.021 mPa·s; viscosity (298.15 K, 101 kPa, x1 = 0.1993): 0.7856 ± 0.02 mPa·s; viscosity (298.15 K, 101 kPa, x1 = 0.3005): 0.77 ± 0.02 mPa·s; viscosity (298.15 K, 101 kPa, x1 = 0.3997): 0.7696 ± 0.02 mPa·s; viscosity (298.15 K, 101 kPa, x1 = 0.5014): 0.7849 ± 0.02 mPa·s; viscosity (298.15 K, 101 kPa, x1 = 0.6014): 0.803 ± 0.021 mPa·s; viscosity (298.15 K, 101 kPa, x1 = 0.7043): 0.8378 ± 0.022 mPa·s; viscosity (298.15 K, 101 kPa, x1 = 0.8): 0.8834 ± 0.023 mPa·s; viscosity (298.15 K, 101 kPa, x1 = 0.8992): 0.9338 ± 0.024 mPa·s; viscosity (303.15 K, 101 kPa, x1 = 0.1016): 0.7586 ± 0.02 mPa·s; viscosity (303.15 K, 101 kPa, x1 = 0.1993): 0.7308 ± 0.019 mPa·s; viscosity (303.15 K, 101 kPa, x1 = 0.3005): 0.7174 ± 0.019 mPa·s; viscosity (303.15 K, 101 kPa, x1 = 0.3997): 0.7169 ± 0.019 mPa·s; viscosity (303.15 K, 101 kPa, x1 = 0.5014): 0.7317 ± 0.019 mPa·s; viscosity (303.15 K, 101 kPa, x1 = 0.6014): 0.7509 ± 0.019 mPa·s; viscosity (303.15 K, 101 kPa, x1 = 0.7043): 0.7843 ± 0.02 mPa·s; viscosity (303.15 K, 101 kPa, x1 = 0.8): 0.8216 ± 0.021 mPa·s; viscosity (303.15 K, 101 kPa, x1 = 0.8992): 0.87 ± 0.023 mPa·s; viscosity (303.15 K, 101.3 kPa, x1 = 0.0224): 0.799 ± 0.013 mPa·s; viscosity (303.15 K, 101.3 kPa, x1 = 0.0385): 0.783 ± 0.013 mPa·s; viscosity (303.15 K, 101.3 kPa, x1 = 0.0614): 0.773 ± 0.013 mPa·s; viscosity (303.15 K, 101.3 kPa, x1 = 0.4829): 0.708 ± 0.012 mPa·s; viscosity (303.15 K, 101.3 kPa, x1 = 0.5172): 0.714 ± 0.012 mPa·s; viscosity (303.15 K, 101.3 kPa, x1 = 0.5409): 0.72 ± 0.012 mPa·s; viscosity (303.15 K, 101.3 kPa, x1 = 0.5731): 0.729 ± 0.012 mPa·s; viscosity (303.15 K, 101.3 kPa, x1 = 0.7744): 0.792 ± 0.013 mPa·s; viscosity (303.15 K, 101.3 kPa, x1 = 0.8952): 0.846 ± 0.014 mPa·s; viscosity (303.15 K, 101.3 kPa, x1 = 0.9478): 0.884 ± 0.014 mPa·s; viscosity (308.15 K, 101 kPa, x1 = 0.1016): 0.7009 ± 0.018 mPa·s; viscosity (308.15 K, 101 kPa, x1 = 0.1993): 0.68 ± 0.018 mPa·s; viscosity (308.15 K, 101 kPa, x1 = 0.3005): 0.668 ± 0.017 mPa·s; viscosity (308.15 K, 101 kPa, x1 = 0.3997): 0.6674 ± 0.017 mPa·s; viscosity (308.15 K, 101 kPa, x1 = 0.5014): 0.6829 ± 0.018 mPa·s; viscosity (308.15 K, 101 kPa, x1 = 0.6014): 0.7001 ± 0.018 mPa·s; viscosity (308.15 K, 101 kPa, x1 = 0.7043): 0.7318 ± 0.019 mPa·s; viscosity (308.15 K, 101 kPa, x1 = 0.8): 0.7693 ± 0.02 mPa·s; viscosity (308.15 K, 101 kPa, x1 = 0.8992): 0.8092 ± 0.021 mPa·s; viscosity (313.15 K, 101 kPa, x1 = 0.1016): 0.6496 ± 0.017 mPa·s; viscosity (313.15 K, 101 kPa, x1 = 0.1993): 0.6314 ± 0.016 mPa·s; viscosity (313.15 K, 101 kPa, x1 = 0.3005): 0.6223 ± 0.016 mPa·s; viscosity (313.15 K, 101 kPa, x1 = 0.3997): 0.6228 ± 0.016 mPa·s; viscosity (313.15 K, 101 kPa, x1 = 0.5014): 0.637 ± 0.017 mPa·s; viscosity (313.15 K, 101 kPa, x1 = 0.6014): 0.6546 ± 0.017 mPa·s; viscosity (313.15 K, 101 kPa, x1 = 0.7043): 0.6823 ± 0.018 mPa·s; viscosity (313.15 K, 101 kPa, x1 = 0.8): 0.7163 ± 0.019 mPa·s; viscosity (313.15 K, 101 kPa, x1 = 0.8992): 0.7511 ± 0.019 mPa·s

Q: What does the source list for `CC(C)=O` + CC(C)O?
A: viscosity (298.15 K, 101 kPa, x2 = 0.152): 0.347 ± 0.004 mPa·s; viscosity (298.15 K, 101 kPa, x2 = 0.161): 0.349 ± 0.004 mPa·s; viscosity (298.15 K, 101 kPa, x2 = 0.292): 0.389 ± 0.004 mPa·s; viscosity (298.15 K, 101 kPa, x2 = 0.302): 0.395 ± 0.004 mPa·s; viscosity (298.15 K, 101 kPa, x2 = 0.452): 0.486 ± 0.005 mPa·s; viscosity (298.15 K, 101 kPa, x2 = 0.486): 0.507 ± 0.005 mPa·s; viscosity (298.15 K, 101 kPa, x2 = 0.488): 0.513 ± 0.005 mPa·s; viscosity (298.15 K, 101 kPa, x2 = 0.661): 0.703 ± 0.006 mPa·s; viscosity (298.15 K, 101 kPa, x2 = 0.812): 1.071 ± 0.009 mPa·s; viscosity (298.15 K, 101 kPa, x2 = 0.849): 1.187 ± 0.009 mPa·s

Q: Which viscosity (298.15 K, 100 kPa, x1 = 0.8932) does the source give for `CCCCn1cc[n+](C)c1.O=S(=O)([O-])C(F)(F)F` + CCOC(C)=O here?
A: 54.68 ± 11 mPa·s

Q: What about the viscosity (303.15 K, 100 kPa, x1 = 0.3056) of the same compound?
A: 8.97 ± 1.8 mPa·s

Q: And the viscosity (308.15 K, 100 kPa, x1 = 0.3056)?
A: 7.31 ± 1.5 mPa·s

Q: What about the viscosity (313.15 K, 100 kPa, x1 = 0.3056) of the same compound?
A: 6.63 ± 1.3 mPa·s

Q: And the viscosity (313.15 K, 100 kPa, x1 = 0.3978)?
A: 9.79 ± 2 mPa·s

Q: And the viscosity (318.15 K, 100 kPa, x1 = 0.3056)?
A: 5.79 ± 1.2 mPa·s

Q: And the viscosity (323.15 K, 100 kPa, x1 = 0.3056)?
A: 4.97 ± 1 mPa·s

Q: What about the viscosity (323.15 K, 100 kPa, x1 = 0.3978) of the same compound?
A: 7.21 ± 1.4 mPa·s

Q: What about the viscosity (323.15 K, 100 kPa, x1 = 0.5067) of the same compound?
A: 9.88 ± 2 mPa·s

Q: Which viscosity (313.15 K, 101.33 kPa, x1 = 0.5) does the source give for `CCCC[P+](CCCC)(CCCC)CCCC.CS(=O)(=O)[O-]` + O=S1(=O)CCCC1 here?
A: 84.22 ± 17 mPa·s
